Measurements: US8338441B2, “Inhibitors of human immunodeficiency virus replication” (priority 2009, dated 2012)

tested on: HIV-1 NL4.3 strain; experiment: C8166 HIV-1 Luciferase Assay (EC50); format: cell-based; details: Human immunodeficiency virus 1, C8166, 72 h, read-out: Antiviral potency EC50
Description: C8166 HIV-1 Luciferase Assay (EC50)
C8166 cells are derived from a human T-lymphotrophic virus type 1 immortalized but nonexpressing line of cord blood lymphocytes (obtained from J. Sullivan and originally produced in the laboratory of R. Gallo, Virology 1983; 129: 51-64) and are highly permissive to HIV-1 infection. The pGL3 Basic LTR/TAR plasmid is made by introducing the HIV-1 HxB2 LTR sequence from nucleotide −138 to +80 (Sca1-HindIII) upstream of the luciferase gene in the pGL3 Basic Vector (a promoterless luciferase expression vector from Promega catalogue # E1751) with the gene for blasticidine resistance cloned in. The reporter cells are made by electroporating C8166 cells with pGL3 Basic LTR/TAR and selecting positive clones with blasticidine. Clone C8166-LTRIuc #A8-F5-G7 is selected by 3 consecutive rounds of limiting dilution under blasticidine selection. Cultures are maintained in complete media (consisting of: Roswell Park Memorial Institute medium (RPMI) 1640+10% FBS+10^−5 M β-mercaptoethanol+10 μg/ml gentamycin) with 5 μg/ml blasticidine, however, blasticidine selection is removed from the cells before performing the viral replication assay.
Luciferase Assay Protocol
Serial dilutions of HIV-1 inhibitor compounds are prepared in complete media from 10 mM DMSO stock solutions. Eleven serial dilutions of 2.5× are made at 8× desired final concentration in a 1 mL deep well titer plate (96 wells). The 12th well contains complete media with no inhibitor and serves as the positive control. All samples contain the same concentration of DMSO (≦0.1% DMSO). A 25 μL aliquot of inhibitor is added, to triplicate wells, of a 96 well tissue culture treated clear view black microtiter plate (Corning Costar catalogue # 3904). The total volume per well is 200 μL of media containing cells and inhibitor. The last row is reserved for uninfected C8166 LTRluc cells to serve as the background blank control and the first row is media alone.
C8166 LTRluc cells are counted and placed in a minimal volume of complete RPMI 1640 in a tissue culture flask (ex. 30×10^6 cells in 10 mL media/25 cm^2 flask). Cells are infected with HIV-1 or virus with variant integrase generated as described below at a […] (moi) of 0.005. Cells are incubated for 1.5 hours at 37° C. on a rotating rack in a 5% CO2 incubator and re-suspended in complete RPMI to give a final concentration of 25,000-cells/175 μL. 175 μL of cell mix is added to wells of a 96 well microtiter plate containing 25 μL 8× inhibitors. 25,000 uninfected C8166-LTRluc cells/well in 200 μL complete RPMI are added to the last row for background control. Cells are incubated at 37° C. in 5% CO2 incubator for 3 days.
50 μL Steady Glo (luciferase substrate T1/2=5 hours Promega catalogue # E2520) is added to each well of the 96 well plate. The relative light units (RLU) of luciferase is determined using the LUMIstar Galaxy luminometer (BMG LabTechnologies). Plates are read from the bottom for 2 seconds per well with a gain of 240.
The level of inhibition (% inhibition) of each well containing inhibitor is calculated as follows: […]
The calculated % inhibition values are used to determine EC50, slope factor (n) and maximum inhibition (Imax) by the non-linear regression routine NLIN procedure of SAS using the following equation: […]

Which EC50 does the source give for Cc1nc(-c2nc3ccccc3n2C2CC2)c(C)c(-c2ccc(Cl)cc2)c1[C@H](OC(C)(C)C)C(=O)O [compound 1450] here?
The EC50 was 7.7 nM.

Which EC50 does the source give for Cc1nc(C(=O)NC2CCC(C)(C)CC2)c(C)c(-c2ccc(Cl)cc2F)c1[C@H](OC(C)(C)C)C(=O)O [compound 1451] here?
Its EC50 is 1.7 nM.

For Cc1nc(C(=O)NC2CCC3(CC2)CC3)c(C)c(-c2ccc(Cl)cc2F)c1[C@H](OC(C)(C)C)C(=O)O [compound 1452], which EC50 is on record?
Its EC50 is 5.7 nM.

For COc1cc(C(=O)Nc2nc(C)c([C@H](OC(C)(C)C)C(=O)O)c(-c3ccc(Cl)cc3F)c2C)nc2ccccc12 [compound 1453], which EC50 is on record?
Its EC50 is 2.1 nM.

How did the EC50 turn out when Cc1nc(C(=O)N[C@H]2CC[C@H](C)CC2)c(C)c(-c2cccc(F)c2Cl)c1[C@H](OC(C)(C)C)C(=O)O [compound 1454] was run?
Its EC50 is 3.7 nM.

Cc1nc(C(=O)N[C@H]2CC[C@H](C)CC2)c(C)c(-c2ccccc2Cl)c1[C@H](OC(C)(C)C)C(=O)O [compound 1455] was tested. Which EC50 did it give?
The EC50 was 4 nM.

With Cc1nc(C(=O)N[C@H]2CC[C@H](C)CC2)c(C)c(-c2ccc(Br)cc2)c1[C@H](OC(C)(C)C)C(=O)O [compound 1456] as the compound, how does the EC50 read?
Its EC50 is 4.2 nM.

Which EC50 does the source give for Cc1nc(C(=O)NC2CCC(C)(C)CC2)c(C)c(-c2ccc(Br)cc2)c1[C@H](OC(C)(C)C)C(=O)O [compound 1457] here?
The EC50 was 4 nM.

With Cc1nc(C(=O)NC2CCC3(CC2)CC3)c(C)c(-c2ccc(Br)cc2)c1[C@H](OC(C)(C)C)C(=O)O [compound 1458] as the compound, how does the EC50 read?
Its EC50 is 6.9 nM.

Cc1nc(C(=O)N[C@H]2CC[C@H](C)CC2)c(C)c(-c2ccc3c(c2)SCCO3)c1[C@H](OC(C)(C)C)C(=O)O [compound 1459] was tested. Which EC50 did it give?
Its EC50 is 4 nM.

For COc1cc(C(=O)Nc2nc(C)c([C@H](OC(C)(C)C)C(=O)O)c(-c3ccc(Cl)cc3)c2C)nc2ccccc12 [compound 1461], which EC50 is on record?
The EC50 was 2.5 nM.

For COc1cc(Cl)ccc1C(=O)Nc1nc(C)c([C@H](OC(C)(C)C)C(=O)O)c(-c2ccc(Cl)cc2)c1C [compound 1462], which EC50 is on record?
The EC50 was 1.2 nM.

With Cc1nc(NC(=O)c2oc3ccccc3c2C)c(C)c(-c2ccc(Cl)cc2)c1[C@H](OC(C)(C)C)C(=O)O [compound 1463] as the compound, how does the EC50 read?
The EC50 was 2.1 nM.

For Cc1nc(NC(=O)[C@H]2CC[C@H](C)CC2)c(C)c(-c2ccc(Cl)cc2)c1[C@H](OC(C)(C)C)C(=O)O [compound 1464], which EC50 is on record?
The EC50 was 6.2 nM.

Cc1ccc(C(F)(F)F)c(C(=O)Nc2nc(C)c([C@H](OC(C)(C)C)C(=O)O)c(-c3ccc(Cl)cc3)c2C)c1 [compound 1465] was tested. Which EC50 did it give?
Its EC50 is 11 nM.

Cc1nc(NC(=O)c2ccc(Cl)c(F)c2)c(C)c(-c2ccc(Cl)cc2)c1[C@H](OC(C)(C)C)C(=O)O [compound 1466] was tested. Which EC50 did it give?
The EC50 was 4.9 nM.

With COc1nc(C)ccc1C(=O)Nc1nc(C)c([C@H](OC(C)(C)C)C(=O)O)c(-c2ccc(Cl)cc2)c1C [compound 1467] as the compound, how does the EC50 read?
The EC50 was 4.3 nM.

Cc1nc(-c2nc3ccc(Cl)cn3c2C)c(C)c(-c2ccc(Cl)cc2)c1[C@H](OC(C)(C)C)C(=O)O [compound 1469] was tested. Which EC50 did it give?
Its EC50 is 0.61 nM.

Cc1nc(C(=O)N2Cc3ccccc3C2)c(C)c(-c2ccc(Cl)cc2)c1[C@H](OC(C)(C)C)C(=O)O [compound 1471] was tested. Which EC50 did it give?
The EC50 was 2.4 nM.

With COCc1nc(-c2ccc(C)c(C)c2)c(C)c(-c2ccc(Cl)cc2)c1[C@H](OC(C)(C)C)C(=O)O [compound 2003] as the compound, how does the EC50 read?
The EC50 was 17 nM.

With Cc1noc(C)c1-c1ccc(-c2nc(C)c([C@H](OC(C)(C)C)C(=O)O)c(-c3ccc(Cl)cc3)c2C#N)cc1 [compound 2005] as the compound, how does the EC50 read?
Its EC50 is 19 nM.

With CCC(C)(C)O[C@H](C(=O)O)c1c(C)nc(C(=O)N[C@H]2CC[C@H](C)CC2)c(C)c1-c1ccc(Cl)cc1 [compound 3005] as the compound, how does the EC50 read?
The EC50 was 9.3 nM.

Which EC50 does the source give for Cc1nc(C(=O)N[C@H]2CC[C@H](C)CC2)c(C)c(-c2ccc(Cl)cc2)c1[C@H](OC1(C)CCC1)C(=O)O [compound 3009] here?
The EC50 was 24 nM.

How did the EC50 turn out when Cc1c(-c2ccc3c(c2)CCCO3)c([C@H](OC(C)(C)C)C(=O)O)c(C)n2cc(CC(C)(C)C)nc12 [compound 4002] was run?
The EC50 was 73 nM.

COC(=O)c1cnn2c(C)c([C@H](OC(C)(C)C)C(=O)O)c(-c3ccc4c(c3)CCCO4)c(C)c12 [compound 6001] was tested. Which EC50 did it give?
Its EC50 is 89 nM.
